# Test results taken from US6316482A, “Benzamide derivatives having a vasopressin antagonistic activity” (Fujisawa Pharmaceutical Co., Ltd., priority 1996, dated 2001).
# Where a name gives a salt, the structure may show the parent alone.
# Key:
# [1] = biological target: Vasopressin 1 (V1) receptor (Homo sapiens, UniProt P37288); test: Vasopressin 1 (V1) receptor binding; conditions: platelet membranes from normal subjects; competition vs 1.5 nM 3H-vasopressin; 15 minutes at 30° C.; pH 7.4
# [2] = biological target: human V2 receptor (Homo sapiens, UniProt P30518); test: Vasopressin 2 (V2) receptor binding; conditions: membranes of CHO cells expressing human V2 receptor; competition vs 0.5 nM 3H-vasopressin; 2 hours at 22° C.; pH 7.4
# Chain of human V2 receptor (P30518 whole entry): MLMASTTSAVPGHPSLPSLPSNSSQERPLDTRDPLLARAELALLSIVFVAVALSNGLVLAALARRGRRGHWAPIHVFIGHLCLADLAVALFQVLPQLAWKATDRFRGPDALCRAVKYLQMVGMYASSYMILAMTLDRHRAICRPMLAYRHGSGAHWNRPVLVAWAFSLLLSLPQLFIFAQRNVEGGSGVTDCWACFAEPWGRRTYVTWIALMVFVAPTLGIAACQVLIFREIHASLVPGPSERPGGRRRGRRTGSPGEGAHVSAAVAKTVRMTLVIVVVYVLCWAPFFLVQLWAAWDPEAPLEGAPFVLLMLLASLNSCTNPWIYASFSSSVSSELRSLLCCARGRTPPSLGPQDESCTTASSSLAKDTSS
# Chain of Vasopressin 1 (V1) receptor (P37288 whole entry): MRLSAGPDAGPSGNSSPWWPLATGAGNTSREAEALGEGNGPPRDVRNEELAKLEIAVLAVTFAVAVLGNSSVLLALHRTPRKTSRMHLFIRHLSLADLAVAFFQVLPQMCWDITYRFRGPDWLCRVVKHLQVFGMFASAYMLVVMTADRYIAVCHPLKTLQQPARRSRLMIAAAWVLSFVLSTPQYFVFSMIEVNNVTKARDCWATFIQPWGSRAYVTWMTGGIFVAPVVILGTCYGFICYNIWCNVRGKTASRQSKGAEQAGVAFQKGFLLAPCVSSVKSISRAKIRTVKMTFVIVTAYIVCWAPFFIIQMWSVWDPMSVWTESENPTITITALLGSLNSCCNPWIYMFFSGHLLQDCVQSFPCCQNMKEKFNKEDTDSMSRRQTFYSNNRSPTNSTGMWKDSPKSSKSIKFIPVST
SMILES,IC50 [1] [nM],IC50 [2] [nM]
"COc1cc(C(=O)N(C)c2ccc(C)cc2OCCCCCC(=O)N2CCN(C)CC2)ccc1C(=O)Nc1cccc2[nH]c(CN3CCN(C)CC3)nc12 [Example 115-81, 3-Methoxy-N-methyl-N-[4-methyl-2-[5-(4-methylpiperazin-1-yl)carbonylpent-1-yloxy]phenyl]-4-[2-[(4-methyl-piperazin-1-yl)methyl]-1H-benzimidazol-4-yl]-carbamoylbenzamide trihydrochloride]",4.5,–
"COc1cc(C(=O)N(C)c2ccc(C)cc2OCCCCCC(=O)N2CCN(C)CC2)ccc1C(=O)Nc1cccc2[nH]c(C)nc12 [Example 115-71, 3-Methoxy-N-methyl-4-[2-mehtyl-1H-benzimidazol-4-yl]carbamoyl-N-[4-methyl-2-[5-(4-methylpiperazin-1-yl)-carbonylpent-1-yloxy]phenyl]benzamide dihydrochloride]",0.7,–
"COc1cc(C(=O)N(C)c2ccc(C)cc2OCCCCCC(=O)N2CCN(C)CC2)ccc1NC(=O)c1cccc2[nH]c(CO)nc12 [Example 39-35, 4-(2-Hydroxymethyl-1H-benzimidazol-4-yl)carbonylamino-3-methoxy-N-methyl-N-[4-methyl-2-[5-(4-methylpiperazin-1-yl)carbonylpent-1-yloxy]phenyl]benzamide dihydrochloride]",< 1,380
"COc1cc(C(=O)N(C)c2ccc(C)cc2OCCCCCC(=O)N2CCN(C)CC2)ccc1NC(=O)c1cccc2[nH]c(CN)nc12 [Example 39-27, 4-(2-Aminomethyl-1H-benzimidazol-4-yl)carbonylamino-3-methoxy-N-methyl-N-[4-methyl-2-[5-(4-methylpiperazin-1-yl)carbonylpent-1-yloxy]phenyl]benzamidetrihydrochloride]",1.5,460
